Source: US20230295152A1 (SENDA BIOSCIENCES, INC., priority 2019, published 2023)

Key:
Format in all cases: in vitro ADME
[1] = Plasma Protein Binding with Ultracentrifugation Method, rat; conditions: for fraction unbound at 30 min, 1 μM: rat plasma, read-out: Rat plasma protein binding (% bound); for fraction unbound at 5.5 h, 1 μM: rat, plasma, read-out: Plasma Protein Binding PPB (r) % (converted)
Procedure: The frozen plasma (stored at −80° C.) was thawed in a 37° C. water bath, followed by centrifugation at 3,220 g for 10 minutes to remove clots. The supernatant was removed into a new tube as the spun plasma. The spun plasma was pre-warmed in a 37° C. water bath for 10 minutes. The stock solutions of test compounds were diluted to 200 μM in DMSO, and then spiked into the plasma. Duplicate samples were prepared. The final concentration of compound was 1.0 μM. The final concentration of organic solvent was 0.5%. Warfarin was used as positive control in the assay. 1.0 mL of the spiked plasma was transferred to a new balance ultracentrifuge tube. Samples were incubated at 37° C., 5% CO2 for 30 minutes. After incubation, the balance ultracentrifuge tubes were centrifuged at 600,000 g for 5.5 hours at 37° C. After centrifugation, 50 μL solution was removed from the center of the ultracentrifuge tubes as the post-ultracentrifugation samples, followed by the addition of 50 μL blank plasma and 400 μL quench solution (acetonitrile containing internal standards (IS, 100 nM Alprazolam, 500 nM Labetalol and 2 μM Ketoprofen)) to precipitate protein and release compounds. Samples were vortexed for 2 minutes, followed by centrifugation at 20,000 g for 15 minutes at room temperature. The supernatant was diluted with ultrapure water and then used for LC-MS/MS analysis. Stability samples was prepared by transferring 50 μL of the spiked plasma to 0.6 mL tubes and incubated at 37° C., 5% CO2 for 0.5 and 6 hours. After incubation, 50 μL PBS (100 mM, pH7.4) and 400 μL quench solution were added to the stability samples. And then stability samples were treated the same way as the post-ultracentrifugation samples. The supernatant was diluted with ultrapure water and then used for LC-MS/MS analysis. 0.5 hour time point samples were also used as no-spun controls. Time 0 samples were prepared by transferring 50 μL spiked plasma to 0.6 mL tubes containing 50 μL PBS, followed by the addition of 400 μL quench solution to precipitate protein and release compound. And then these samples were treated the same way as the post-ultracentrifugation samples. The supernatant was diluted with ultrapure water and then used for LC-MS/MS analysis.
(§1) Data Analysis: All calculations were carried out using Microsoft Excel. The concentrations of test compound in plasma samples and post-ultracentrifugation plasma was determined from peak areas. The percentages of test compound bound was calculated as follows: […]
“+++” indicates a % bound value less than 50, “++” indicates a % bound value between 50 and 75, and “+” indicates a % bound value above 75.

CYP = CYP Inhibition (in vitro DMPK profile, Table 52)
Procedure: Example 11: CYP Inhibition Assay
(§2) Stock solutions of test compounds were prepared in DMSO at the concentrations of 10 mM. Stock solution was diluted to 2 mM with acetonitrile. The final concentration of test compounds was 10 μM. For the stock solution preparation, if the positive control could not be well dissolved in the mixture of DMSO and acetonitrile (1:4) at the highest concentration, another mixture of acetonitrile and DMSO, the mixture of acetonitrile and H2O or DMSO will be used to dissolve the compound.
(§3) Data Analysis: The automatic peak integration areas are checked for all the samples. The Analyte Peak Area and Internal Standard Peak Area are exported into excel spreadsheet. The inhibition of each P450 enzyme in human liver microsomes is measured as the percentage decrease in the activity of marker metabolite formation compared to non-inhibited controls (=100% activity).

[2] = Suspension Monkey heps ClInt; conditions: @1 and 0.1 mM
Description: Compound Nos. 9 and 46 have the following in vitro DMPK profiles.

[3] = Plasma Protein Binding, dog; conditions: read-out: Plasma Protein Binding PPB (d) % (converted)
Procedure: (§4) Example 10: Plasma Protein Binding Determination with Ultracentrifugation Method
(§5) The frozen plasma (stored at −80° C.) was thawed in a 37° C. water bath, followed by centrifugation at 3,220 g for 10 minutes to remove clots. The supernatant was removed into a new tube as the spun plasma. The spun plasma was pre-warmed in a 37° C. water bath for 10 minutes. The stock solutions of test compounds were diluted to 200 μM in DMSO, and then spiked into the plasma. Duplicate samples were prepared. The final concentration of compound was 1.0 μM. The final concentration of organic solvent was 0.5%. Warfarin was used as positive control in the assay. 1.0 mL of the spiked plasma was transferred to a new balance ultracentrifuge tube. Samples were incubated at 37° C., 5% CO2 for 30 minutes. After incubation, the balance ultracentrifuge tubes were centrifuged at 600,000 g for 5.5 hours at 37° C. […]
as §1

[4] = Plasma Protein Binding, monkey; conditions: read-out: Plasma Protein Binding PPB (mon) % (converted)
Procedure: as §4, §5, §1

CYP3A4 = molecular target: T1, CYP3A4 (Homo sapiens, UniProt P08684); experiment: CYP Inhibition Assay in human liver microsomes, CYP3A4; conditions: pH 7.4
T1 construct: from tissue; host or cells: human liver microsomes (HLM)
Procedure: as §2
The substrate solutions are stored in a −20° C. freezer and warmed to room temperature prior to use.
Preparation of Phosphate Buffer (100 mmol/L, pH 7.4): To prepare the Solution A, 7.098 g of disodium hydrogen phosphate were weighed out and added into 500 mL of pure water, then sonicated to dissolve the content. To prepare the Solution B, 3.400 g of potassium dihydrogen phosphate were weighed out and added into 250 mL of pure water, then sonicated to dissolve the content. Solution A was placed on a stirrer and slowly Solution B was added into Solution A until the pH reached 7.4. Preparation of 10 mmol/L NADPH Solution: NADPH was dissolved at 8.334 mg/mL in phosphate buffer; the solution was freshly prepared prior to use.
The master solution was prepared according to Table 45. The incubation was carried out in 96 deep well plates. The following volumes were dispensed into each well of the incubation plate: 179 μL of the substrate and HLM mixture in phosphate buffer, 1 μL of the compound working solution, or vehicle (mixture of DMSO and acetonitrile (1:4)). The incubation plate was placed into the water bath and pre-warmed at 37° C. for 15 minutes before the reactions was started by the addition of 20 μL of 10 mmol/L NADPH solution in phosphate buffer. After the addition of NADPH, the incubation plate was incubated at 37° C. for corresponding time. The assay was performed in duplicate.
The reaction was quenched by the addition of 1.5 volume (300 μL) of cold acetonitrile containing 3% formic acid and internal standards (200 nM Labetalol, 200 nM Alprazolam and 200 nM tolbutamide). The plate was centrifuged at 3,220 g for 40 minutes. 100 μL of the supernatant was transferred to a new plate. The supernatant was diluted with 100 μL pure water. The samples were mixed well and analyzed using UPLC/MS/MS.
as §3
The percentage of remaining activity was calculated as follows: […]

T1 sequence (P08684 whole entry): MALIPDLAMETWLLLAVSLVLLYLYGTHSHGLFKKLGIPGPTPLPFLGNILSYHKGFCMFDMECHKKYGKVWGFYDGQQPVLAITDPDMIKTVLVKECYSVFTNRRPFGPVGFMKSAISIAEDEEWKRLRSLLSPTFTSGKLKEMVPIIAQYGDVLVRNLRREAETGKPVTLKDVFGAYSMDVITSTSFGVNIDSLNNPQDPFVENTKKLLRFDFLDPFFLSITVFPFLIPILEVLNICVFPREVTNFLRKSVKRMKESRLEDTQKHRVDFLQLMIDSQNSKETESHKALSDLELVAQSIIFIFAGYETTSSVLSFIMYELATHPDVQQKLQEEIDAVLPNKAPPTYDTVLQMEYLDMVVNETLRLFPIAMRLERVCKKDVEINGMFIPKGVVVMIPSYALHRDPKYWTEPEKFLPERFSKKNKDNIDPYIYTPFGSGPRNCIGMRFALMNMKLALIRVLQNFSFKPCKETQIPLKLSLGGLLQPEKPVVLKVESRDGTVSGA

SMILES	fraction unbound at 30 min, 1 μM [1]	CYP Inhibition (CYP)	Suspension Monkey heps ClInt (% Qh) [2]	fraction unbound at 5.5 h, 1 μM [3]	fraction unbound at 5.5 h, 1 μM [1]	fraction unbound at 5.5 h, 1 μM [4]	inhibition at 10 µM (CYP3A4) [%]
C[C@@H](CO)n1cnc2c(-c3cccc(F)c3)nc(-c3ccc(Cl)cc3)cc2c1=O [Compound 7]	< 0.25						
CC(C)(O)Cn1cnc2c(-c3cccnc3)nc(-c3ccc(C(F)(F)F)nc3)cc2c1=O [Compound 9]	< 0.25	Negative	<24 (@1 and % Qh	0.124	0.098	0.149	
CC(C)(O)Cn1cnc2c(-c3cccnc3)nc(-c3ccc(Cl)cc3)cc2c1=O [Compound 18]							35.2
C[C@H](n1cnc2c(-c3cnn(C)c3)nc(-c3ccc(Cl)cc3)cc2c1=O)C(C)(C)O [Compound 30]	< 0.25						12.2
C[C@@H](CO)n1cnc2c(-c3cccnc3)nc(-c3ccc(C(F)(F)F)cn3)cc2c1=O [Compound 46, (S)-3-(1-hydroxypropan-2-yl)-8-(pyridin-3-yl)-6-(5-(trifluoromethyl)pyridin-2-yl)pyrido[3,4-d]pyrimidin-4(3H)-one]	< 0.25	Negative	<24 (@1 and % Qh	0.11	0.102	0.113	2.26
O=c1c2cc(-c3ccc(Cl)cc3)nc(-c3cccnc3)c2ncn1[C@H]1COC[C@@H]1O [Compound 125, 6-(4-chlorophenyl)-3-((3S,4R)-4-hydroxytetrahydrofuran-3-yl)-8-(pyridin-3-yl)pyrido[3,4-d]pyrimidin-4(3H)-one]							23.8
